Source: patent US8796470B2 (AbbVie Inc., priority 2010, dated 2014)

biological target: T1, human Cav2.2 (Homo sapiens, UniProt Q00975); assay: Assessment of calcium channel activity using FLIPR (Ca2+ influx in IMR32 cells); assay type: cell-based; settings: IMR32 cells endogenously expressing human Cav2.2, Calcium 4 dye, 60 minute pre-incubation, 2 μM nifedipine, depolarized with 80 mM KCl, 5 mM CaCl2
T1 construct: IMR32 cells endogenously expressing human Cav2.2; endogenous in cells; host or cells: IMR32 cells (human neuroblastoma)
Experimental: (i) In Vitro Methods—Assessment of Calcium Channel Activity Using FLIPR:
IMR32 cells endogenously expressing human Cav2.2 were assayed for Ca^2+ influx using a no-wash calcium indicator dye (Calcium 4 dye: Molecular Probes) and FLIPR technology (Lubin, M. L.; Reitz, T. L.; Todd, M. J.; Flores, C. M.; Qin, N.; Xin, H. Assay and Drug Development Technologies 2006, 4(6), 689-694.). The IMR32 cells were maintained in MEM media containing 10% (v/v) FBS, 1% (v/v) antibiotic/antimitotic, 1% (v/v) sodium pyruvate and 1% (v/v) MEM NEAA. Following dissociation in 0.05% (v/v) trypsin/EDTA, cells were seeded into black 1×96-well plates (Corning Cellbind) at a density of 1−1.2×10^5 cells/well and incubated in the maintenance media above for 48 hours at 37° C. Immediately prior to performing the assay the media was removed and cells were loaded for 1.5 hours with 1×Calcium 4 dye prepared in HBSS (137 mM NaCl, 5.4 mM KCl, 0.25 mM Na2HPO4, 0.44 mM KH2PO4, 1.3 mM CaCl2, 1 mM MgSO4, 4.2 mM NaHCO3) containing HEPES pH 7.4 at room temperature. After dye loading and a subsequent 60 minute pre-incubation with compounds (full log dilutions from 10 μM to 0.1 nM) in the presence of 1.3 mM CaCl2 and 2 μM nifedipine to block endogenous L-type channels, the external Ca^2+ concentration was increased to 5 mM CaCl2 and the cells concomitantly depolarized with 80 mM KCl to assay channel activity. To determine the IC50 values, the percent inhibition of the compound at each concentration was determined relative to the activity in the absence of inhibitor, and data was fitted using non-linear regression sigmoidal dose response curve analysis with GraphPad Prism®.

T1 sequence (Q00975 whole entry): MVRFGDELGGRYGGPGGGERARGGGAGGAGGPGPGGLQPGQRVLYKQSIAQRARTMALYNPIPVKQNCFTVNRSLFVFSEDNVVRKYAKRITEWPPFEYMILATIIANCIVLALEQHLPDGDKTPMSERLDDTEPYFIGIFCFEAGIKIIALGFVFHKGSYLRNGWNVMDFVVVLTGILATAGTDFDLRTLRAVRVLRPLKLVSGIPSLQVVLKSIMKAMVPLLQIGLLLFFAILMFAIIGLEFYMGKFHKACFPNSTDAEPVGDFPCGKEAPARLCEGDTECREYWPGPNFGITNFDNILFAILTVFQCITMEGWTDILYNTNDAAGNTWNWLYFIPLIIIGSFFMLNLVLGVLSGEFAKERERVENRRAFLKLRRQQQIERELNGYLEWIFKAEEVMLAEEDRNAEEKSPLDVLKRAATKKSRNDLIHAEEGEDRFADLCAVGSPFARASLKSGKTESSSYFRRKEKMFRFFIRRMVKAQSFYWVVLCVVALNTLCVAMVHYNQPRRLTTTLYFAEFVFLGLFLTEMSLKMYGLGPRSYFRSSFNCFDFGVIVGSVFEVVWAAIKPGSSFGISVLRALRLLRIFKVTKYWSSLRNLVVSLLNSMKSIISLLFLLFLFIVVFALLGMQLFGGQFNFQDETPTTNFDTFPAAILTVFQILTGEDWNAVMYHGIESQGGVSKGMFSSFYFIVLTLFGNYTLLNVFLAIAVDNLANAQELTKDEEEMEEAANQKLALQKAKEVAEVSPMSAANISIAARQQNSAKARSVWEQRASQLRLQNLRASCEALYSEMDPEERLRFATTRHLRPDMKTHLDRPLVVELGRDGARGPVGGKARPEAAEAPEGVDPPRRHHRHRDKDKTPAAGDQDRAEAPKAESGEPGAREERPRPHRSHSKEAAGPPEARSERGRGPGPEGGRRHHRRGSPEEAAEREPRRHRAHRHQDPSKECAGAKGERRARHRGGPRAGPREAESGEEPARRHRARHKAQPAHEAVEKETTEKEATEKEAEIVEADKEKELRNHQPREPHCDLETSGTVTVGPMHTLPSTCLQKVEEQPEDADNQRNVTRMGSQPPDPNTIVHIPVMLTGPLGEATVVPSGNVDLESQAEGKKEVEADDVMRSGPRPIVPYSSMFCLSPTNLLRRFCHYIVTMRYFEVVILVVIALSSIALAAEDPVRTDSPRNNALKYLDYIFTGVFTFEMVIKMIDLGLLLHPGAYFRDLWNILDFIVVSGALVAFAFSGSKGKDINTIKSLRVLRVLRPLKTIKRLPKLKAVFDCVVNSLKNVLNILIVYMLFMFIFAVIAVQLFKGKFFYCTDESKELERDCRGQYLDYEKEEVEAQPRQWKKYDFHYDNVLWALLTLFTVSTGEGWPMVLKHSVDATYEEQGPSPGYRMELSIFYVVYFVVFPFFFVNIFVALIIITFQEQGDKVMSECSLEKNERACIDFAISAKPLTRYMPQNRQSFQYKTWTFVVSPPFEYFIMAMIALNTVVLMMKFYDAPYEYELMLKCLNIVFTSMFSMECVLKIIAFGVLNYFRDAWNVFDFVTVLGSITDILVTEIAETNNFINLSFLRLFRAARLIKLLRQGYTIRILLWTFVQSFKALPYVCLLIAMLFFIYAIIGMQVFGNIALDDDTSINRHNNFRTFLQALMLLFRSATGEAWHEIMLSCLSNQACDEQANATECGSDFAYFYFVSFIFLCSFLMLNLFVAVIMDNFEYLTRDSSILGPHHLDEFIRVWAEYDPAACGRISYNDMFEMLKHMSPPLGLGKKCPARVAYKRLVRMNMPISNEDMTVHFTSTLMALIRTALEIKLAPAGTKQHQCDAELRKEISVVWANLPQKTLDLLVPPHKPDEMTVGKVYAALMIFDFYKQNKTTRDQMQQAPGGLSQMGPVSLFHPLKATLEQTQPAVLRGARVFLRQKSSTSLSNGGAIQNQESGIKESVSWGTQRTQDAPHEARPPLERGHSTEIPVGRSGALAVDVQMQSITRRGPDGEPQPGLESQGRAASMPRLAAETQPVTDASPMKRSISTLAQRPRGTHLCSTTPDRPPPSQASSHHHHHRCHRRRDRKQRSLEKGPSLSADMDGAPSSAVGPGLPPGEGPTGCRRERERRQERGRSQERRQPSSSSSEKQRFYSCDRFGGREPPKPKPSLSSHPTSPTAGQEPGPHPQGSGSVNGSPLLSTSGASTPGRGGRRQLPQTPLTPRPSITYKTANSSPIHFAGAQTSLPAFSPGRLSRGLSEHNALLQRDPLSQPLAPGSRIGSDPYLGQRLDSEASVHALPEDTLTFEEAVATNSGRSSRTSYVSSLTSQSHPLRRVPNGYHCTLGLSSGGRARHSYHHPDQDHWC
T1 sequence (P54289 25-956 partner limits assumed): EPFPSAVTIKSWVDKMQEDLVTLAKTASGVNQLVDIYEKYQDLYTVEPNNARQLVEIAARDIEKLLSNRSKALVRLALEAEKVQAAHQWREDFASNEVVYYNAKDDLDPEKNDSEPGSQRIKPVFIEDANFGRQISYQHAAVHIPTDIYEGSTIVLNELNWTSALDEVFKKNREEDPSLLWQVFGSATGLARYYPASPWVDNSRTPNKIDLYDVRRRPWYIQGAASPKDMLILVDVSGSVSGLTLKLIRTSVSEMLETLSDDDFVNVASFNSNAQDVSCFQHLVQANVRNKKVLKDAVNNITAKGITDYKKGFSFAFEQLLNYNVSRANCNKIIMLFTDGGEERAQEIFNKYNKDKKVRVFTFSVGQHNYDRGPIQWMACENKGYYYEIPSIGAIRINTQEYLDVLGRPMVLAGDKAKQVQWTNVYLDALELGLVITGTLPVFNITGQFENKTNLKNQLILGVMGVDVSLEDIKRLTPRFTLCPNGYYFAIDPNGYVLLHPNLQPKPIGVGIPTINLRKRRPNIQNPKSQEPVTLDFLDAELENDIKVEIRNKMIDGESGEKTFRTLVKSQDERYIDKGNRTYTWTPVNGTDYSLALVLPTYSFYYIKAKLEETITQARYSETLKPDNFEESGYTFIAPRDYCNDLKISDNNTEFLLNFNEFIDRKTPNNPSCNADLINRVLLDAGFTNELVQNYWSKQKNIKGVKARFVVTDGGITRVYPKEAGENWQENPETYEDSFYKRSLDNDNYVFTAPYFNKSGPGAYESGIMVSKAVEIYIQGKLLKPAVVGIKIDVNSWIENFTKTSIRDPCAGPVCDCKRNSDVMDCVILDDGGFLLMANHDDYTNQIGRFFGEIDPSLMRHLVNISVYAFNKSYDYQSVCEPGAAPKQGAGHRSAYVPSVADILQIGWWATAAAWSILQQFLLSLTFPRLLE
T1 sequence (P54289 957-1103 partner limits assumed): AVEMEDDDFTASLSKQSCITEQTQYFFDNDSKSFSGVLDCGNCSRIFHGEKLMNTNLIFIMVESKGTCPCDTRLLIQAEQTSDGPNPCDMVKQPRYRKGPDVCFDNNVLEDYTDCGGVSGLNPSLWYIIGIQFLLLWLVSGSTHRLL
T1 sequence (P54284 whole entry partner): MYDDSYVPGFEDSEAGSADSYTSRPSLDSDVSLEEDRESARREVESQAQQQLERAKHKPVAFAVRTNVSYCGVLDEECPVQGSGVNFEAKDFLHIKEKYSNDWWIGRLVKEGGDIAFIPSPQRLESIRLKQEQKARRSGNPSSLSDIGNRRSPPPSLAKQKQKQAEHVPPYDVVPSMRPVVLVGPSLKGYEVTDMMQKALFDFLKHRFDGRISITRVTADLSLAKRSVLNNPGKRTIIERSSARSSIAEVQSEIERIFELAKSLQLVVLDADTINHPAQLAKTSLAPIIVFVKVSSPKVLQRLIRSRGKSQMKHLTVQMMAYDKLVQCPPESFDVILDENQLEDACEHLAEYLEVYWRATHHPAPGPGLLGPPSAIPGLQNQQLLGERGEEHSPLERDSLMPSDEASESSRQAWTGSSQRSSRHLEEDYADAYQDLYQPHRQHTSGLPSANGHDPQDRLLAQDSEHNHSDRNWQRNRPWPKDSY

Compound	IC50
5-methyl-1-{(3aR,4S,6aS)-2-[6-(trifluoromethyl)pyridin-2-yl]octahydrocyclopenta[c]pyrrol-4-yl}-1H-benzimidazole and 6-methyl-1-{(3aR,4S,6aS)-2-[6-(trifluoromethyl)pyridin-2-yl]octahydrocyclopenta[c]pyrrol-4-yl}-1H-benzimidazole [Example 59]	2.8 µM
C=C1CC[C@@H]2CN(Cc3ccccc3)C[C@H]12 [Example 1, (3aS,6aS)-2-benzyl-4-methyleneoctahydrocyclopenta[c]pyrrole]	> 30 µM
C[C@@]1(NC(=O)c2ccccc2)CC[C@@H]2CN(Cc3ccccc3)C[C@@H]21 [Example 2, N-[(3aR,4R,6aS)-2-benzyl-4-methyloctahydrocyclopenta[c]pyrrol-4-yl]benzamide]	11.5 µM
C[C@]1(NC(=O)c2ccccc2)CC[C@@H]2CN(Cc3ccccc3)C[C@@H]21 [Example 3, N-[(3aR,4S,6aS)-2-benzyl-4-methyloctahydrocyclopenta[c]pyrrol-4-yl]benzamide]	12 µM
CC(=O)N[C@]1(C)CC[C@@H]2CN(Cc3ccccc3)C[C@@H]21 [Example 4, N-[(3aR,4R,6aS)-2-benzyl-4-methyloctahydrocyclopenta[c]pyrrol-4-yl]acetamide]	> 30 µM
CC(=O)N[C@@]1(C)CC[C@@H]2CN(Cc3ccccc3)C[C@@H]21 [Example 5, N-[(3aR,4S,6aS)-2-benzyl-4-methyloctahydrocyclopenta[c]pyrrol-4-yl]acetamide]	> 30 µM
C[C@@]1(NC(=O)c2cccc(F)c2)CC[C@@H]2CN(Cc3ccccc3)C[C@@H]21 [Example 6, N-[(3aR,4R,6aS)-2-benzyl-4-methyloctahydrocyclopenta[c]pyrrol-4-yl]-3-fluorobenzamide]	17.7 µM
C[C@]1(NC(=O)c2cccc(F)c2)CC[C@@H]2CN(Cc3ccccc3)C[C@@H]21 [Example 7, N-[(3aR,4S,6aS)-2-benzyl-4-methyloctahydrocyclopenta[c]pyrrol-4-yl]-3-fluorobenzamide]	5.16 µM
C[C@@]1(NC(=O)c2ccccc2)CC[C@@H]2CNC[C@@H]21 [Example 8, N-[(3aR,4R,6aS)-4-methyloctahydrocyclopenta[c]pyrrol-4-yl]benzamide]	26.3 µM
C[C@]1(NC(=O)c2ccccc2)CC[C@@H]2CNC[C@@H]21 [Example 9, N-[(3aR,4S,6aS)-4-methyloctahydrocyclopenta[c]pyrrol-4-yl]benzamide]	> 30 µM
C[C@@]1(NC(=O)c2ccccc2)CC[C@@H]2CN(c3cccc(C(F)(F)F)n3)C[C@@H]21 [Example 14, N-{(3aR,4R,6aS)-4-methyl-2-[6-(trifluoromethyl)pyridin-2-yl]octahydrocyclopenta[c]pyrrol-4-yl}benzamide]	2.14 µM
C[C@]1(NC(=O)c2ccccc2)CC[C@@H]2CN(c3cccc(C(F)(F)F)n3)C[C@@H]21 [Example 15, N-{(3aR,4S,6aS)-4-methyl-2-[6-(trifluoromethyl)pyridin-2-yl]octahydrocyclopenta[c]pyrrol-4-yl}benzamide]	2.52 µM
CC(=O)N[C@]1(C)CC[C@@H]2CN(c3cccc(C(F)(F)F)n3)C[C@@H]21 [Example 16, N-{(3aR,4R,6aS)-4-methyl-2-[6-(trifluoromethyl)pyridin-2-yl]octahydrocyclopenta[c]pyrrol-4-yl}acetamide]	6.44 µM
CC(=O)N[C@@]1(C)CC[C@@H]2CN(c3cccc(C(F)(F)F)n3)C[C@@H]21 [Example 17, N-{(3aR,4S,6aS)-4-methyl-2-[6-(trifluoromethyl)pyridin-2-yl]octahydrocyclopenta[c]pyrrol-4-yl}acetamide]	3.27 µM
C[C@@]1(NC(=O)c2cccc(F)c2)CC[C@@H]2CN(c3cccc(C(F)(F)F)n3)C[C@@H]21 [Example 18, 3-fluoro-N-{(3aR,4R,6aS)-4-methyl-2-[6-(trifluoromethyl)pyridin-2-yl]octahydrocyclopenta[c]pyrrol-4-yl}benzamide]	1.5 µM
C[C@]1(NC(=O)c2cccc(F)c2)CC[C@@H]2CN(c3cccc(C(F)(F)F)n3)C[C@@H]21 [Example 19, 3-fluoro-N-{(3aR,4S,6aS)-4-methyl-2-[6-(trifluoromethyl)pyridin-2-yl]octahydrocyclopenta[c]pyrrol-4-yl}benzamide]	1.82 µM
C[C@]1(NCc2ccccc2)CC[C@@H]2CN(c3cccc(C(F)(F)F)n3)C[C@@H]21 [Example 20, (3aR,4S,6aS)—N-benzyl-4-methyl-2-[6-(trifluoromethyl)pyridin-2-yl]octahydrocyclopenta[c]pyrrol-4-amine]	0.38 µM
C[C@@]1(NCc2ccccc2)CC[C@@H]2CN(c3cccc(C(F)(F)F)n3)C[C@@H]21 [Example 21, (3aR,4R,6aS)—N-benzyl-4-methyl-2-[6-(trifluoromethyl)pyridin-2-yl]octahydrocyclopenta[c]pyrrol-4-amine]	1.03 µM
CCN[C@]1(C)CC[C@@H]2CN(c3cccc(C(F)(F)F)n3)C[C@@H]21 [Example 22, (3aR,4R,6aS)—N-ethyl-4-methyl-2-[6-(trifluoromethyl)pyridin-2-yl]octahydrocyclopenta[c]pyrrol-4-amine]	5.85 µM
CCN[C@@]1(C)CC[C@@H]2CN(c3cccc(C(F)(F)F)n3)C[C@@H]21 [Example 23, (3aR,4S,6aS)—N-ethyl-4-methyl-2-[6-(trifluoromethyl)pyridin-2-yl]octahydrocyclopenta[c]pyrrol-4-amine]	1.76 µM
C[C@@]1(NCc2cccc(F)c2)CC[C@@H]2CN(c3cccc(C(F)(F)F)n3)C[C@@H]21 [Example 24, (3aR,4R,6aS)—N-(3-fluorobenzyl)-4-methyl-2-[6-(trifluoromethyl)pyridin-2-yl]octahydrocyclopenta[c]pyrrol-4-amine]	0.33 µM
C[C@]1(NCc2cccc(F)c2)CC[C@@H]2CN(c3cccc(C(F)(F)F)n3)C[C@@H]21 [Example 25, (3aR,4S,6aS)—N-(3-fluorobenzyl)-4-methyl-2-[6-(trifluoromethyl)pyridin-2-yl]octahydrocyclopenta[c]pyrrol-4-amine]	0.18 µM
C[C@@]1(N)CC[C@@H]2CN(c3cccc(C(F)(F)F)n3)C[C@@H]21 [Example 26, (3aR,4R,6aS)-4-methyl-2-[6-(trifluoromethyl)pyridin-2-yl]octahydrocyclopenta[c]pyrrol-4-amine]	3.64 µM
C[C@]1(N)CC[C@@H]2CN(c3cccc(C(F)(F)F)n3)C[C@@H]21 [Example 27, (3aR,4S,6aS)-4-methyl-2-[6-(trifluoromethyl)pyridin-2-yl]octahydrocyclopenta[c]pyrrol-4-amine]	1.8 µM
O[C@@H]1CC[C@@H]2CN(c3cccc(C(F)(F)F)n3)C[C@@H]21 [Example 30, (3aR,4R,6aS)-2-[6-(trifluoromethyl)pyridin-2-yl]octahydrocyclopenta[c]pyrrol-4-ol]	15.8 µM
O[C@H]1CC[C@@H]2CN(c3cccc(C(F)(F)F)n3)C[C@@H]21 [Example 31, (3aR,4S,6aS)-2-[6-(trifluoromethyl)pyridin-2-yl]octahydrocyclopenta[c]pyrrol-4-ol]	9.62 µM
O=C1CC[C@@H]2CN(c3cccc(C(F)(F)F)n3)C[C@H]12 [Example 32, (3aR,6aS)-2-[6-(trifluoromethyl)pyridin-2-yl]hexahydrocyclopenta[c]pyrrol-4(1H)-one]	21.4 µM
